Series [1] relates to Bacillus subtilis. Description: Antibacterial activity against Bacillus subtilis ATCC 6633 assessed as bacterial growth inhibition incubated for 48 hrs by resazurin microtiter assay. The format is functional. In general terms: The colour change of resazurin is a common sign of viable cells or microbes.
Series [2] deals with Staphylococcus aureus. Put plainly: Antibacterial activity against Staphylococcus aureus ATCC 25923 assessed as bacterial growth inhibition incubated for 48 hrs by resazurin microtiter assay. The format is functional.
In series [3] the test system is Candida albicans. Put plainly: Antifungal activity against Candida albicans ATCC 10231 assessed as bacterial growth inhibition incubated for 48 hrs by bromocresol green based broth dilution assay. In kind it is functional. For orientation: In broth dilution the organism is exposed to a series of concentrations in liquid medium.
In series [4] the test system is Saccharomyces cerevisiae. Put plainly: Antifungal activity against Saccharomyces cerevisiae ATCC 9763 assessed as bacterial growth inhibition incubated for 48 hrs by bromocresol green based broth dilution assay. In kind it is functional.
Series [5] concerns Giardia intestinalis. Description: Antiparasitic activity against Giardia intestinalis 713 assessed as bacterial growth inhibition incubated for 96 hrs by microtiter assay. In kind it is functional. The following applies: Giardia duodenalis.
A short description of series [6]: Anticancer activity against mouse NS-1 cells assessed as reduction in cell viability incubated for 96 hrs by resazurin based assay. In kind it is functional.
Series [7] can be described thus: Cytotoxicity against human NFF cells assessed as reduction in cell viability incubated for 96 hrs by resazurin based assay. In kind it is toxicity. To be noted: read-out: MIC.
Series [8] relates to Spodoptera littoralis. Put plainly: Insecticidal activity against Spodoptera littoralis neonate larvae assessed as reduction in weight gain of larvae. The format is functional.
For series [9], the system named is Spodoptera littoralis. Description: Insecticidal activity against Spodoptera littoralis assessed as reduction in number of pupae in adulthood (Rvb=90%). In kind it is functional. More on the design: scale not given: the % may be the effect or the level left.

Structures are written as SMILES. ≈ marks a conversion by molar mass, not a printed value.

As to `NC(=O)/C(=C1/OC(=O)C(c2ccccc2)=C1O)c1ccccc1`, the MIC in series [1] was 50 µg/mL (≈ 163 µM); in series [2] it was greater than 100 µg/mL; in series [3], 200 µg/mL (≈ 651 µM); in series [4], 100 µg/mL (≈ 325 µM).

Turning to `O=C1O/C(=C(/C(=O)O)c2ccccc2)C(O)=C1c1ccccc1` [PULVIC ACID], the MIC in [1], in [2], in [3] and in series [4] was greater than 100 µg/mL throughout.

As to `CC(C)C[C@H](NC(=O)/C(=C1/OC(=O)C(c2ccccc2)=C1O)c1ccccc1)C(=O)O`, the MIC is greater than 100 µg/mL in series [1]; greater than 100 µg/mL in [2]; greater than 200 µg/mL in series [3]; greater than 200 µg/mL in series [4]; greater than 100 µg/mL in series [5]; greater than 100 µg/mL in series [6]. Also, the MCC at 96 h in series [7] was greater than 100 µg/mL.

Consider `COC(=O)[C@@H](CC(C)C)NC(=O)/C(=C1/OC(=O)C(c2ccccc2)=C1O)c1ccccc1`, for which the MIC in series [1] is 50 µg/mL (≈ 115 µM); in series [2], 100 µg/mL (≈ 230 µM); in series [3] it was greater than 200 µg/mL; in [4], greater than 200 µg/mL; in [5], 25 µg/mL (≈ 57.4 µM); in series [6] it was 50 µg/mL (≈ 115 µM). The MCC at 96 h in series [7] was greater than 100 µg/mL.

Consider `Cc1ncc([N+](=O)[O-])n1CCO` [METRONIDAZOLE], for which the MIC in series [5] was 0.3 µg/mL (≈ 1.75 µM).

On to `CSC[S+]([O-])C[C@H](CO)NC(=O)/C=C/c1c(C)[nH]c(=O)[nH]c1=O` (stereo partly drawn), for which the MIC in series [6] turned out to be 0.6 µg/mL (≈ 1.66 µM). Besides, in series [7], the MCC at 96 h was found to be 0.6 µg/mL.

Turning to `O=C1OC2=C(c3ccccc3)C(=O)OC2=C1c1ccccc1` [PULVINIC DILACTONE], the MIC in series [1], in series [2], in [3] and in series [4] was greater than 100 µg/mL in each case.

Regarding `COC(=O)[C@H](Cc1ccccc1)NC(=O)/C(=C1/OC(=O)C(c2ccccc2)=C1O)c1ccccc1`, the ED50 in series [8] turned out to be 71 µmol/g. Moreover, the Activity in series [9] is recorded as 25%. Moreover, the MIC was 50 µg/mL (≈ 106 µM) in series [1]; greater than 100 µg/mL in [2]; greater than 200 µg/mL in [3]; greater than 200 µg/mL in [4]; 100 µg/mL (≈ 213 µM) in [5]; 3.1 µg/mL (≈ 6.6 µM) in [6]. The MCC at 96 h in [7] was greater than 100 µg/mL.

On to `O=C1O/C(=C(/C(=O)N[C@@H](Cc2ccccc2)C(=O)O)c2ccccc2)C(O)=C1c1ccccc1`, for which the MIC is 100 µg/mL (≈ 220 µM) in [1]; greater than 100 µg/mL in [2]; greater than 200 µg/mL in series [3]; greater than 200 µg/mL in series [4]; greater than 100 µg/mL in series [5]; greater than 100 µg/mL in [6]. Moreover, the MCC at 96 h in series [7] is greater than 100 µg/mL.

`CN(CC[C@H](N)CC(=O)N[C@H]1C=C[C@H](n2ccc(N)nc2=O)O[C@@H]1C(=O)O)C(=N)N.Cl`: the MIC was greater than 200 µg/mL in [3] and 3.1 µg/mL in series [4].

Turning to `COC(=O)[C@@H](Cc1ccccc1)NC(=O)/C(=C1/OC(=O)C(c2ccccc2)=C1O)c1ccccc1`, the MIC in series [1] was 50 µg/mL (≈ 106 µM); in [2] it was 50 µg/mL (≈ 106 µM); in [3], greater than 200 µg/mL; in series [4] it was greater than 200 µg/mL; in series [5] it was 25 µg/mL (≈ 53.2 µM); in [6], 50 µg/mL (≈ 106 µM). In addition, the MCC at 96 h in [7] is greater than 100 µg/mL.

On to `CN(C)[C@@H]1C(O)=C(C(N)=O)C(=O)[C@@]2(O)C(O)=C3C(=O)c4c(O)cccc4[C@@](C)(O)[C@H]3C[C@@H]12` [TETRACYCLINE], for which the MIC turned out to be 6.3 µg/mL (≈ 14.2 µM) in [1] and 12.5 µg/mL (≈ 28.1 µM) in series [2].

Regarding `COC(=O)[C@H](CC(C)C)NC(=O)/C(=C1/OC(=O)C(c2ccccc2)=C1O)c1ccccc1`, the MIC was greater than 100 µg/mL in [1]; greater than 100 µg/mL in series [2]; greater than 200 µg/mL in series [3]; greater than 200 µg/mL in [4]; 50 µg/mL (≈ 115 µM) in [5]; 25 µg/mL (≈ 57.4 µM) in [6]. Besides, the MCC at 96 h in [7] is greater than 100 µg/mL.

These data come from ChEMBL document CHEMBL5252610, “Synthesis, Characterization, and Bioactivity of the Lichen Pigments Pulvinamide, Rhizocarpic Acid, and Epanorin and Congeners” (J Nat Prod, 2023).
